Source: patent publication US9839642B2, “Beta-tetrazolyl-propionic acids as metallo-beta-lactamase inhibitors” (priority 2014, dated 2017)
pIC50: −log10 of the molar value. Where two headings read alike, the source gives them in different places.

Legend:
[1] = target: IMP-1 (Serratia marcescens, UniProt P52699); experiment: Enzyme activity: determination of IC50, fluorescence assay with CCF2-FA substrate; assay type: biochemical; details: CCF2-FA 1.25 μM, 2 hours at 25° C., read-out: IMP1 IC50
Outline: (§1)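 Final enzyme levels differed by target: 1 pM NDM-1, 2 pM IMP-1, 30 pM VIM-1. Each was incubated 2 hours at 25° C with test compound and 1.25 μM CCF2-FA, and 460 nm fluorescence (405 nm excitation) was fitted by 4-parameter curve to obtain IC50.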

[2] = target: NDM-1 (Klebsiella pneumoniae, UniProt C7C422); experiment: as above; assay type: biochemical; details: CCF2-FA 1.25 μM, 2 hours at 25° C., read-out: NDM1 IC50
Sequence of NDM-1 (C7C422 29-270, looked up, species assumed): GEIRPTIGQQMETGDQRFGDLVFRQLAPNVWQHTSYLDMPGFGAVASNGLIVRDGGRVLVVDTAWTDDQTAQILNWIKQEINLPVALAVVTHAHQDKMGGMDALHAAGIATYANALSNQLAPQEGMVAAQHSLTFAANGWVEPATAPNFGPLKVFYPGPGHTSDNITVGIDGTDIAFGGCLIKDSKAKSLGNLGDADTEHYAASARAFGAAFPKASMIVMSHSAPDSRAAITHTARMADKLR
Outline: as §1

[3] = target: VIM-1 (Pseudomonas aeruginosa, UniProt A0A0F7KYQ8); experiment: as above; assay type: biochemical; details: CCF2-FA 1.25 μM, 2 hours at 25° C., read-out: VIM1 IC50
Outline: as §1

[4] = tested on: Serratia marcescens expressing IMP-1 (CL5741); experiment: Antibiotic potentiation activity: synergistic concentration (MITC95) with imipenem, growth by OD600; assay type: cell-based
Outline: (§2)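 Colonies from overnight agar plates (35 °C) were suspended in saline and diluted 1:100 into 1.1× CAMHB. Inhibitor (final 200 μM to 0.195 μM) was combined with imipenem at 1 or 4 μg/ml, incubated 22–24 h at 35 °C, and absorbance read; MITC95 is the lowest inhibitor concentration giving 95% growth inhibition.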

[5] = tested on: Klebsiella pneumoniae expressing VIM-1 (IHMA599644); experiment: as above; assay type: cell-based
Outline: as §2

[6] = tested on: Escherichia coli expressing NDM-1 (CLB30016); experiment: as above; assay type: cell-based
Outline: as §2

[7] = S. marcescens CL5741 (IMP-1), 95% inhibition of growth
[8] = K. pneumoniae IHMA599644 (VIM-1), 95% inhibition of growth
[9] = E. coli CLB30016 (NDM-1), 95% inhibition of growth
[10] = 95% inhibition of bacterial growth, strain CL5741
[11] = 95% inhibition of bacterial growth, strain IHMA599644
[12] = 95% inhibition of bacterial growth, strain CLB30016

Sequence of IMP-1 (P52699 19-246, looked up, species assumed): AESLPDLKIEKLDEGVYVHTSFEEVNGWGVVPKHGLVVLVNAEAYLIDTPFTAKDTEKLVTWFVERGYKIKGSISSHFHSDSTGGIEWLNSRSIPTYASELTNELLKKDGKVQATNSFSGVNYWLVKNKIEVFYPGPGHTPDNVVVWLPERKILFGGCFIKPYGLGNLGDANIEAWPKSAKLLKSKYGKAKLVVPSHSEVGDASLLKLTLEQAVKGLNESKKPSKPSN

SMILES	pIC50 ([1]; IMP-1 enzyme 2 pM)	pIC50 ([2]; NDM-1 enzyme 1 pM)	pIC50 ([3]; VIM-1 enzyme 30 pM)	IMP1 SM5741 MITC95 [4, 7] [µM]	VIM1 KP599644 MITC95 [5, 8] [µM]	NDM1 EC30016 MITC95 [6, 9] [µM]	pIC50 ([1]; enzyme 2 pM)	pIC50 ([2]; enzyme 1 pM)	pIC50 ([3]; enzyme 30 pM)	IMP1 SM5741 MITC95 [4, 10] [µM]	VIM1 KP599644 MITC95 [5, 11] [µM]	NDM1 EC30016 MITC95 [6, 12] [µM]
CC(C)C[C@H](C(=O)O)[C@H](Cc1ccc(N2CC(CO)(CO)C2)nc1)c1nnn[nH]1 [Example 330, (2S)-2-[(1S)-2-{6-[3,3-bis(hydroxymethyl)azetidin-1-yl]pyridin-3-yl}-1-(1H-tetrazol-5-yl)ethyl]-4-methylpentanoic acid]	6.40	7.00	7.66	25	100	16						
CCC[C@H](C(=O)O)[C@H](Cc1cccc(N2CCCCC2)c1)c1nn[nH]n1 [Example 368, (2S)-2-[(1S)-2-(3-piperidin-1-ylphenyl)-1-(2H-tetrazol-5-yl)ethyl]pentanoic acid]	6.13	7.34	8.01	37.5	50	25						
CCC[C@H](C(=O)O)[C@H](Cc1cc(C(F)(F)F)cc(C(F)(F)F)c1)c1nnn[nH]1 [Example 269, (2S)-2-[(1S)-2-[3,5-bis(trifluoromethyl)phenyl]-1-(1H-tetrazol-5-yl)ethyl]pentanoic acid]	5.82	7.44	9.12	38	38	18.8						
CCC[C@H](C(=O)O)[C@H](Cc1ccc(NCCO)cn1)c1nnn[nH]1 [Example 136, (S)-2-((S)-2-(5-((2-hydroxyethyl)amino)pyridin-2-yl)-1-(1H-tetrazol-5-yl)ethyl)pentanoic acid]							5.17	6.47	6.82	100	18.8	1.2
CCC[C@H](C(=O)O)[C@H](Cc1ccc(C2CCNC2)cc1)c1nnn[nH]1 (stereo partly drawn) [Example 413, (2S)-2-((1S)-2-(4-(pyrrolidin-3-yl)phenyl)-1-(1H-tetrazol-5-yl)ethyl)pentanoic acid]	5.96	6.84	8.34	25	12.5	6.25						
CCC[C@H](C(=O)O)[C@H](Cc1cccc(Br)c1)c1nn[nH]n1 [Example 16, (S)-2-((S)-2-(3-bromophenyl)-1-(2H-tetrazol-5-yl)ethyl)pentanoic acid]							6.92	7.92	9.12	4.7	9.4	9.4
CCC[C@H](C(=O)O)[C@H](Cc1cccc(-c2cccc(CN3CCCCC3)c2)c1)c1nn[nH]n1 [Example 358, (2S)-2-[(1S)-2-[3′-(piperidin-1-ylmethyl)biphenyl-3-yl]-1-(2H-tetrazol-5-yl)ethyl]pentanoic acid]	6.00	7.33	8.21	12.5	62	38						
CCC[C@H](C(=O)O)C(Cc1ccccc1C(F)(F)F)c1nnn[nH]1 (stereo in doubt) [Example 268, (2S)-2-{(1S)-1-(1H-tetrazol-5-yl)-2-[2-(trifluoromethyl)phenyl]ethyl}pentanoic acid]	5.57	8.19	8.49	75	12.5	7.8						
CCC[C@H](C(=O)O)[C@H](Cc1cccc(-c2cncc(CN3CCCCC3)c2)c1)c1nn[nH]n1 [Example 347, (2S)-2-[(1S)-2-{3-[5-(piperidin-1-ylmethyl)pyridin-3-yl]phenyl}-1-(2H-tetrazol-5-yl)ethyl]pentanoic acid]	5.80	6.80	8.19	25	25	50						
